# Measured values reported in a melting point compilation (Tetko et al.; mined from patent text by program, amines drawn as free bases though some values may be those of a salt).
row,melting point,Compound
1,157 to 158 °C,Cn1c(C=O)nnc1NCCCOc1cccc(CN2CCCCC2)c1
2,156 °C,Oc1ccccc1C=NC1=NN(c2cccc(C(F)(F)F)c2)CC1
3,125 to 127 °C,COCc1nccc(=O)[nH]1
4,217 to 219 °C,C[C@H](CO)NN1c2[nH]c(=O)cnc2C=NC1SCc1cccc(C(F)(F)F)c1F (stereo partly drawn)
5,176 to 178 °C,O=C(Nc1ccc2ccc(-c3ccc(Cl)c(Cl)c3)nc2n1)c1cccc(Br)c1
6,200 to 201 °C,COc1cc2ncnc(N3CCN(C(=O)NCc4ccc(F)cc4)CC3)c2cc1OC
7,234 to 236 °C,CCc1[nH]c(=O)[nH]c1C(O)c1ccncc1 (stereo not drawn)
8,189 to 190 °C,CO/C(=C\c1ccc(OCCc2nc(-c3ccccc3)oc2C)c2ccsc12)C(=O)O
9,198 to 199 °C,COc1cc(OC)c(-c2cccs2)cc1/C=C/C(=O)c1ccc(S(=O)(=O)Nc2ccon2)cc1
10,126 °C,CC(C#N)c1ccc2nc(-c3ccccc3)ccc2c1 (stereo not drawn)
11,206 to 208 °C,Nc1nc(CCc2ccccc2)nc2oc(-c3ccco3)nc12
12,65 to 66 °C,"CCCCCCCCCCOc1cnc(-c2ccc(C(C)O)cc2)nc1 (single isomer, unassigned; (+))"
13,144 to 145 °C,O=C(C(=O)c1cccc(C#Cc2ccccc2)c1)c1cccc(C#Cc2ccccc2)c1
14,132 to 137 °C,Clc1ccc2ncc(Br)n2n1
15,182 to 184 °C,CC1(C)OCc2cc(Cl)cc(C(C)(O)c3cn(C(c4ccccc4)(c4ccccc4)c4ccccc4)cn3)c2O1 (stereo not drawn)
16,136 to 138 °C,Cc1ncccc1Oc1ccc(NC(=O)NCCc2ccccc2)cn1
17,130 to 132 °C,CON(C)CCN1C(=O)c2ccccc2C1=O
18,155 to 157 °C,Nc1nc2ccc(C(O)C(CO)N3CCC(Cc4ccccc4)CC3)cc2s1 (stereo not drawn)
19,39 to 44 °C,COCC(F)Cn1ccnc1[N+](=O)[O-] (stereo not drawn)
20,130 to 132 °C,CCCCN1CCN(CCCC)C2SC(=C3C(=O)CC(c4ccccc4)CC3=O)SC21 (stereo not drawn)
21,239 to 240 °C,NC(=O)c1ncn2c(-c3cccc(C(F)(F)F)c3)ccnc12
22,177 to 178 °C,COc1cc(-c2ccc(C#N)cc2)cc(C=O)c1O
23,115 to 118 °C,O=C(c1ccc(-c2cccc3ccccc23)cc1Cl)N1Cc2cccn2Cc2ccccc21
24,60.2 °C,CC(C)(C)OC(=O)N1CCN2C(=O)N(c3cc(Cl)cc(Cl)c3)C(=O)C2C1 (stereo not drawn)

row,melting point,Compound
1,192 to 195 °C,N#Cc1c(C(=O)O)cnn1-c1ccc(Cl)cc1
2,158 to 162 °C,COc1ccc(C(=O)C=Cc2c(O)cc(OCCBr)cc2O)cc1O
3,175 to 178 °C,CC(C)Cn1cnc2c(N)nc3ccc(CCc4ccccc4)cc3c21
4,198 °C,O=C(Nc1nc(C(Cl)(Cl)Cl)ns1)c1cccc([N+](=O)[O-])c1
5,191 to 193 °C,Cc1ncccc1CN(CCn1cc(C)c2occc2c1=O)Cc1ccc2c(c1)NC(=O)C(C)(C)C(=O)N2C1CC1
6,118 to 120 °C,COc1cccc(C(=O)Nc2ccc(N3CCN(Cc4cccc(C#N)c4)CC3)cc2)c1OCc1ccc(C(F)(F)F)cc1
7,168 to 169 °C,Cc1ccc(S(=O)(=O)n2c(CCCC(=O)O)cc3nc(Cl)ccc32)c(Cl)c1
8,140 to 144 °C,Cc1cc(Br)cnc1CCCCNc1ncc(Cc2ccn(Cc3ccccc3)c(=O)c2)c(=O)[nH]1
9,108 to 113 °C,Nc1cccc(NNC=O)c1
10,192 to 194 °C,CCc1[nH]n(C2CCCC2)c2nc(-c3ccccc3-n3ccnc3)nc(=O)c1-2
11,235 to 237 °C,COc1cc(N)c(Cl)cc1C(=O)NC1CCN(CC2CCN(C(=O)C3CCOCC3)CC2)CC1
12,145 to 147 °C,CN(C)C(=O)Nc1ccc(CN2OCC(C)(C)C2=O)c(Cl)c1
13,254 to 256 °C,COc1cc2ncnc(N3CCN(C(=O)Nc4ccc(N5CCOCC5)cc4)CC3)c2cc1OC
14,144 to 145 °C,CSc1nnc(Sc2cc(C(C)(C)C)c(O)c(C(C)(C)C)c2)s1
15,178 °C,N#Cc1c[nH]cc1-c1cccc(Cl)c1F
16,> 250 °C,O=C(O)c1ccc(-c2nc3cc(Cl)c(Cl)cc3[nH]2)cc1
17,118 to 120 °C,CSC(C)(C(=O)O)c1cccc(C2(c3ccccc3)OCCO2)c1 (stereo not drawn)
18,243 to 245 °C,COc1ccc2c(c1Br)CCC1C(=O)NC(=O)C21 (stereo not drawn)
19,130 to 131 °C,CCOC(=O)[C@H](Cc1ccc(O)cc1)NC(=O)C1(NC(=O)[C@@H](SC(=O)C2CCCC2)C(C)C)CCCC1
20,78 to 79 °C,CCc1cc(N(C)C(=O)N2CCN(c3cc(OC)cc(OC)c3)CC2)c(OC)nc1C
21,235 to 237 °C,CC1CN(c2n[nH]c(-c3ccc(Cl)cc3)c2-c2ccncc2)CCN1 (stereo not drawn)
22,166 °C,CC(=O)Nc1ccc(OC2SCC(OC(C)=O)C(OC(C)=O)C2OC(C)=O)cc1 (stereo not drawn)
23,192 °C,CC(=O)NC[C@H]1CN(c2ccc(N3CCC(n4nnnc4CS(C)(=O)=O)CC3)c(F)c2)C(=O)O1
24,193 to 195 °C,Nc1ccc(CCN2CCC(NC(=O)c3ccccc3)CC2)cc1

row,melting point,Compound
1,221 °C,O=C(O)CN1C(=O)C(=Cc2ccc(OCCc3ccc(F)cc3)c(OCc3ccccc3)c2)SC1=S
2,192 to 194 °C,O=C(Nc1ccc(F)cc1)N1CCc2cc(S(=O)(=O)N3CCN(c4cccc(Cl)c4)CC3)ccc21
3,100 °C,CC(NC(=O)Cc1cc(F)cc(F)c1)C(=O)NC1C(=O)NC(c2ccncc2)c2ccccc21 (stereo not drawn)
4,193 to 194 °C,O=C(Nc1ccc(Cc2nnn[nH]2)cc1)C(F)(F)C(F)(F)C(F)(F)C(F)(F)C(F)(F)C(F)(F)C(F)(F)F
5,105 to 109 °C,CNC(=S)Nc1ncc(Cl)cc1Cl
6,85 to 86 °C,CCCNC(=O)C1(O)CC(O)C2OC(C)(C)OC2C1 (stereo not drawn)
7,89 to 91 °C,CN(C)CCCCCC(=O)O
8,189 to 191 °C,O=S(=O)(C(=CNc1nccs1)S(=O)(=O)c1ccccc1)c1ccccc1
9,288 to 290 °C,CC(=NNC(=N)N)c1sc(-c2ccc3ccccc3c2)nc1C
10,182 to 185 °C,C[C@H](CN1CC(F)C1)NC(=O)c1c[nH]c2ncc(-c3nn(C)c4cc(Cl)ccc34)nc12
11,72 to 73 °C,CN(C(=O)N(C)c1ccc(CCl)cc1)c1ccc(CCl)cc1
12,144 to 146 °C,Cc1noc(NS(=O)(=O)c2ccc(Cl)c(Cl)c2)c1Br
13,> 300 °C,O=c1nc(-c2ccc3c(c2)OCO3)c2cc3c(cc2[nH]1)OCO3
14,165 to 167 °C,COc1ccc(C(=O)Nc2ccc(C(C)(C)c3noc(COc4ccccc4)n3)cc2)cc1OC
15,216 to 217 °C,CC=CC(=O)Nc1c(C(O)(C(F)(F)F)C(F)(F)F)ccc2ccccc12
16,136 to 137 °C,COc1ccc(CCNC(=O)C(=O)NO)cc1OC1CCCC1
17,105 to 108 °C,COc1ccc([C@@H]2Cc3c(cccc3C(F)(F)F)N(CC3=NCCN3C(=O)OC(C)(C)C)C(=O)[C@@H]2OC(C)=O)cc1
18,150 to 152 °C,CCOC(=O)Cc1ccc(NC(=O)C(COc2cccnc2)NS(=O)(=O)c2ccc(F)cc2)cc1 (racemic)
19,82 to 85 °C,CNC(=O)c1cc(Oc2ccc(NC(=O)Nc3ccc(Cl)c(C(F)(F)F)c3)cc2)ccn1
20,193 to 195 °C,CC1(C)CN(CC2Cc3nccnc3C2)c2nc(-c3ccncn3)cc(=O)n2C1
21,165 to 167 °C,CCOC(=O)COc1cc(C(=O)Oc2ccc([N+](=O)[O-])cc2)c(O)c2ccccc12
22,260 to 262 °C,N#Cc1cnc2ccccc2c1Nc1ccc(Cl)cc1Cl
23,189 to 192 °C,N#Cc1ccc(-c2ccc(-c3ccn([C@H](CC(=O)O)C(=O)N[C@H](CO)Cc4ccccc4)c3)cc2)cc1
24,160 °C,COc1ccc(C2COc3cc(O)c(O)cc3C2)cc1 (stereo not drawn)

row,melting point,Compound
1,131 °C,CCOC(=O)C1(Br)Oc2cc(OC(C)=O)ccc2OC1Br (stereo not drawn)
2,218 °C,N=C(NO)c1cnc(N)nc1
3,35 to 36.5 °C,Nc1ccc(S)c(C(F)(F)F)c1
4,257 to 262 °C,CCCCNS(=O)(=O)c1ccc2[nH]c(=O)c(=O)[nH]c2c1
5,244 to 246 °C,O=C1OC2(CCN(C(=O)Nc3ncc(-c4ccccc4)cn3)CC2)c2c(F)cccc21
6,153 to 154 °C,CCC(CC)n1nnc2c(Nc3ccc(C(C)=O)cc3Br)nc(C)nc21
7,115 °C,CCCCOc1ccc(-c2ccc([C@H]3CC[C@H](CCC)CC3)c(C#N)c2C#N)cc1
8,209 to 214 °C,Cc1cc(C)c(Nc2nc(Nc3ccc(C#N)cc3)ncc2-c2ccccc2)c(C)c1
9,175 to 180 °C,CCCc1c2c(cc3[nH]c(=O)c(=O)oc13)CCCC2
10,133 to 137 °C,CC(CC(=O)NC(Cc1c[nH]c2ccccc12)C(=O)CCc1cc(C(F)(F)F)cc(C(F)(F)F)c1)c1ccccc1 (stereo not drawn)
11,147 to 149 °C,N=C(Nc1ccccc1)Nc1ncccc1OCc1c(F)cccc1Cl
12,270 to 275 °C,COc1ccc(C(=O)NC(=O)Nc2ccc3c(c2)NC(=O)/C3=C\c2ccncc2)cc1
13,156 to 157 °C,Cc1cc(C)c(C(O)c2ccc(-n3ccnc3)c(Cl)c2)c(C)c1 (stereo not drawn)
14,77 to 79 °C,CCOc1cc(C(=O)OC)on1
15,178 to 180 °C,CCn1c(C)nc2nc(-c3ccccc3)c(-c3ccccc3)nc21
16,62 to 63 °C,O=C(O)CCCCCCc1nc2ccccc2s1
17,157 to 159 °C,CCOC(=O)c1c(N)c2cccnc2n(CC(C)C)c1=O
18,265 °C,O=C(CC12CC3CC(CC(C3)C1)C2)Nc1ccc2[nH]ncc2c1
19,226 to 228 °C,COc1ccc2c(c1OC)C=NCN2CCC(=O)O
20,137 °C,CC(=O)SCC(=O)c1ccc(Cl)c(S(N)(=O)=O)c1
21,249 to 251 °C,COC(=O)c1ccc(C2C(C(=O)c3ccc(C)cc3)=C(O)C(=O)N2c2ncc(S(=O)(=O)c3ccc([N+](=O)[O-])cc3)s2)cc1 (stereo not drawn)

row,Compound,melting point
1,C=CCN(CC=C)Cc1noc(-c2ncn3c2[C@@H]2CCN2C(=O)c2c-3cccc2C(F)(F)F)n1,147 to 150 °C
2,CCc1c(O)cc(O)c(C(=O)c2ccc(OC)cc2)c1CC(=O)N(CCO)CCN1CCOCC1,235 to 237 °C
3,CCc1cccc2[nH]c3c(c12)CC(N(C)C)CC3 (stereo not drawn),157 to 161 °C
4,CC1(C)OC(=O)C(=[N+]=[N-])C(=O)O1,93 to 94 °C
5,CN1C(=O)C(F)N=C(c2ccccc2Cl)c2cc(Cl)ccc21 (stereo not drawn),204 to 205 °C
